According to PubChem BioAssay AID248 (DTP/NCI, 2004):
Values joined by “and” are separate entries in the source; they are usually repeats but may differ in a detail not shown here. Equal values may be shown once. Inconclusive results and toxic doses are left out. No stated cut-off is given here; in the data, active means T/C of 150% or more; inactive means T/C below 125%.

Test system: L1210 leukemia ip in BDF1 mice, survival T/C
Experiment: NCI In Vivo Anticancer Drug Screen. Data for tumor model L1210 Leukemia (intraperitoneal) in B6D2F1 (BDF1) mice
Settings: endpoint: mean survival time, higher = longer survival
Summary of the method: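 Survival endpoint. Drug-treated group vs vehicle group, expressed as T divided by C. Tumor passaged by transplantation.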

[1] = dose: 100.0 mg/kg/injection, schedule: Q01DX009 (ip), vehicle: Klucel (hydroxypropylcellulose) (HPC)
[2] = dose: 100.0 mg/kg/injection, schedule: Q04DX003 (ip), vehicle: Klucel (hydroxypropylcellulose) (HPC)
[3] = dose: 200.0 mg/kg/injection, schedule: Q01DX009 (ip), vehicle: Klucel (hydroxypropylcellulose) (HPC)
[4] = dose: 200.0 mg/kg/injection, schedule: Q04DX003 (ip), vehicle: Klucel (hydroxypropylcellulose) (HPC)
[5] = dose: 400.0 mg/kg/injection, schedule: Q01DX009 (ip), vehicle: Klucel (hydroxypropylcellulose) (HPC)
[6] = dose: 400.0 mg/kg/injection, schedule: Q04DX003 (ip), vehicle: Klucel (hydroxypropylcellulose) (HPC)
[7] = dose: 50.0 mg/kg/injection, schedule: Q04DX003 (ip), vehicle: Klucel (hydroxypropylcellulose) (HPC)
[8] = dose: 100.0 mg/kg/injection, schedule: Q04DX002 (ip), vehicle: Klucel (hydroxypropylcellulose) (HPC)
[9] = dose: 100.0 mg/kg/injection, schedule: Q04DX003 (ip), vehicle: saline
[10] = dose: 200.0 mg/kg/injection, schedule: Q04DX003 (ip), vehicle: saline
[11] = dose: 200.0 mg/kg/injection, schedule: Q04DX002 (ip), vehicle: Klucel (hydroxypropylcellulose) (HPC)
[12] = dose: 400.0 mg/kg/injection, schedule: Q04DX002 (ip), vehicle: Klucel (hydroxypropylcellulose) (HPC)
[13] = dose: 100.0 mg/kg/injection, schedule: Q01DX001 (ip), vehicle: saline
[14] = dose: 200.0 mg/kg/injection, schedule: Q01DX001 (ip), vehicle: saline
[15] = dose: 400.0 mg/kg/injection, schedule: Q01DX001 (ip), vehicle: saline
[16] = dose: 100.0 mg/kg/injection, schedule: Q01DX009 (ip), vehicle: saline with Tween-80
[17] = dose: 200.0 mg/kg/injection, schedule: Q01DX009 (ip), vehicle: saline with Tween-80
[18] = dose: 400.0 mg/kg/injection, schedule: Q01DX009 (ip), vehicle: saline with Tween-80

Measured: T/C

Cc1ccc(Cl)cc1NC(=O)COc1ccc(Cl)cc1
inactive: [1] 88 % of control | [2] 98 % of control | [3] 94 % of control | [4] 88 % of control | [5] 91 % of control | [6] 103 % of control

CN(C)Cc1cc(C(C)(C)C)ccc1-c1ccc(C(C)(C)C)cc1CN(C)C
inactive: dose: 12.5 mg/kg/injection, schedule: Q01DX009 (ip), vehicle: gum acacia 91 % of control | dose: 25.0 mg/kg/injection, schedule: Q01DX009 (ip), vehicle: gum acacia 96 % of control | dose: 50.0 mg/kg/injection, schedule: Q01DX009 (ip), vehicle: gum acacia 86 % of control

IC1CCC(I)C2CCC1O2 (stereo not given) (tested in a mixture with another compound)
inactive: [7] 106 % of control | [1] 106 % of control | [2] 101 % of control | [3] 104 % of control | [4] 98 % of control and 100 % of control | [5] 96 % of control | [6] 100 % of control

NC(N)=N/N=C/c1cc(Cl)ccc1O
inactive: dose: 12.5 mg/kg/injection, schedule: Q04DX002 (ip), vehicle: Klucel (hydroxypropylcellulose) (HPC) 93 % of control | dose: 25.0 mg/kg/injection, schedule: Q04DX002 (ip), vehicle: Klucel (hydroxypropylcellulose) (HPC) 93 % of control and 110 % of control | [8] 106 % of control

CC[N+](C)(C)CCCOC(=O)C1C2CC3OC(=O)C1C3C2 (stereo not given)
inactive: dose: 25.0 mg/kg/injection, schedule: Q04DX003 (ip), vehicle: saline 101 % of control | dose: 50.0 mg/kg/injection, schedule: Q04DX003 (ip), vehicle: saline 105 % of control | [9] 103 % of control and 108 % of control | [10] 97 % of control

CC(=O)C(CCC#N)(CCC#N)C(C)=O
inactive: dose: 50.0 mg/kg/injection, schedule: Q04DX002 (ip), vehicle: Klucel (hydroxypropylcellulose) (HPC) 101 % of control | [8] 95 % of control and 105 % of control | [11] 100 % of control | [12] 97 % of control and 86 % of control

C[N+]1(C2CCC3CCC2C3O)CCOCC1 (stereo not given)
inactive: dose: 50.0 mg/kg/injection, schedule: Q01DX009 (ip), vehicle: saline 106 % of control and 124 % of control | dose: 100.0 mg/kg/injection, schedule: Q01DX009 (ip), vehicle: saline 100 % of control | [9] 103 % of control and 101 % of control | dose: 200.0 mg/kg/injection, schedule: Q01DX009 (ip), vehicle: saline 98 % of control | [10] 97 % of control and 105 % of control

COC(=O)c1cccc(C)n1
inactive: [13] 94 % of control | [9] 104 % of control | [14] 100 % of control | [10] 97 % of control | [15] 96 % of control | dose: 400.0 mg/kg/injection, schedule: Q04DX003 (ip), vehicle: saline 92 % of control

O=[N+]([O-])C1=C(c2ccccc2)C(c2ccccc2)(c2ccccc2)N=N1
inactive: [13] 100 % of control | [14] 90 % of control | [15] 88 % of control

O=C1CCCC/C1=C/c1ccccc1
inactive: [1] 102 % of control and 112 % of control | [2] 97 % of control and 96 % of control | [3] 102 % of control | [4] 104 % of control and 101 % of control | [5] 102 % of control and 96 % of control | [6] 104 % of control and 100 % of control

CN1CN(c2ccccc2)C2(CCN(C(=O)/C=C/c3ccc(F)cc3)CC2)C1=O
inactive: dose: 75.0 mg/kg/injection, schedule: Q04DX003 (ip), vehicle: Klucel (hydroxypropylcellulose) (HPC) 92 % of control | dose: 150.0 mg/kg/injection, schedule: Q04DX003 (ip), vehicle: Klucel (hydroxypropylcellulose) (HPC) 88 % of control

c1ccc(-c2csc3n4ccccc4c[n+]23)cc1
inactive: dose: 6.25 mg/kg/injection, schedule: Q04DX002 (ip), vehicle: saline with Tween-80 97 % of control | dose: 12.5 mg/kg/injection, schedule: Q04DX002 (ip), vehicle: saline with Tween-80 100 % of control | dose: 25.0 mg/kg/injection, schedule: Q04DX002 (ip), vehicle: saline with Tween-80 93 % of control

O=C1/C(=C\c2ccc([N+](=O)[O-])cc2)N2CCC1CC2
inactive: [8] 102 % of control | [11] 94 % of control | [12] 105 % of control

COc1cc([N+](=O)[O-])ccc1NC(=O)Nc1ccc(S(N)(=O)=O)cc1
inactive: dose: 100.0 mg/kg/injection, schedule: Q01DX001 (ip), vehicle: saline with Tween-80 98 % of control | [16] 103 % of control and 107 % of control | dose: 100.0 mg/kg/injection, schedule: Q04DX002 (ip), vehicle: saline with Tween-80 100 % of control and 102 % of control | dose: 200.0 mg/kg/injection, schedule: Q01DX001 (ip), vehicle: saline with Tween-80 90 % of control | [17] 92 % of control and 103 % of control | dose: 200.0 mg/kg/injection, schedule: Q04DX002 (ip), vehicle: saline with Tween-80 99 % of control and 86 % of control | dose: 400.0 mg/kg/injection, schedule: Q01DX001 (ip), vehicle: saline with Tween-80 91 % of control | [18] 94 % of control and 96 % of control | dose: 400.0 mg/kg/injection, schedule: Q04DX002 (ip), vehicle: saline with Tween-80 94 % of control

CCOC(=O)C(CCc1c[nH]c(=O)[nH]c1=O)(NC(C)=O)C(=O)OCC
inactive: dose: 50.0 mg/kg/injection, schedule: Q04DX002 (ip), vehicle: saline 102 % of control | dose: 100.0 mg/kg/injection, schedule: Q04DX002 (ip), vehicle: saline 122 % of control | dose: 200.0 mg/kg/injection, schedule: Q04DX002 (ip), vehicle: saline 102 % of control | dose: 400.0 mg/kg/injection, schedule: Q04DX002 (ip), vehicle: saline 104 % of control

CC(C)(CBr)C(=O)Cl
inactive: [13] 101 % of control | [14] 106 % of control | [15] 101 % of control

NC(=O)c1ccccc1NC(=O)Nc1cccc(F)c1
inactive: dose: 25.0 mg/kg/injection, schedule: Q01DX009 (ip), vehicle: saline with Tween-80 89 % of control | dose: 50.0 mg/kg/injection, schedule: Q01DX009 (ip), vehicle: saline with Tween-80 95 % of control | [16] 104 % of control | [17] 90 % of control | [18] 96 % of control

CCOc1ccc(NC(=O)CC(C)=O)cc1
inactive: dose: 25.0 mg/kg/injection, schedule: Q04DX003 (ip), vehicle: other 95 % of control | dose: 50.0 mg/kg/injection, schedule: Q04DX003 (ip), vehicle: other 100 % of control | dose: 100.0 mg/kg/injection, schedule: Q04DX003 (ip), vehicle: other 96 % of control

CC(=O)Oc1ccc(OC(C)=O)c2cc3ccccc3cc12
inactive: dose: 100.0 mg/kg/injection, schedule: Q01DX001 (ip), vehicle: carboxymethylcellulose (CMC) 87 % of control | dose: 200.0 mg/kg/injection, schedule: Q01DX001 (ip), vehicle: carboxymethylcellulose (CMC) 93 % of control | dose: 400.0 mg/kg/injection, schedule: Q01DX001 (ip), vehicle: carboxymethylcellulose (CMC) 91 % of control

O=C1CCCC/C1=N/Nc1ccccc1
inactive: dose: 5.0 mg/kg/injection, schedule: Q01DX009 (ip), vehicle: saline with Tween-80 93 % of control | dose: 5.0 mg/kg/injection, schedule: Q04DX003 (ip), vehicle: saline with Tween-80 98 % of control | dose: 10.0 mg/kg/injection, schedule: Q01DX009 (ip), vehicle: saline with Tween-80 102 % of control | dose: 10.0 mg/kg/injection, schedule: Q04DX003 (ip), vehicle: saline with Tween-80 102 % of control | dose: 20.0 mg/kg/injection, schedule: Q01DX009 (ip), vehicle: saline with Tween-80 95 % of control | dose: 20.0 mg/kg/injection, schedule: Q04DX003 (ip), vehicle: saline with Tween-80 99 % of control

O=C(O)CC1CCC(CC(=O)O)CC1 (stereo not given)
inactive: dose: 100.0 mg/kg/injection, schedule: Q04DX003 (ip), vehicle: saline with Tween-80 92 % of control | dose: 200.0 mg/kg/injection, schedule: Q04DX003 (ip), vehicle: saline with Tween-80 89 % of control | dose: 400.0 mg/kg/injection, schedule: Q04DX003 (ip), vehicle: saline with Tween-80 94 % of control

c1cc[n+](Cc2nc3ccccc3[nH]2)cc1
inactive: [13] 102 % of control and 95 % of control

c1ccc(C2=C(c3ccccc3)CSSC2)cc1
inactive: [7] 100 % of control | [2] 100 % of control | [4] 100 % of control
